Measurements reported in ChEMBL document CHEMBL2157914, “Synthesis, anti-inflammatory and antimicrobial evaluation of novel 1-acetyl-3,5-diaryl-4,5-dihydro (1H) pyrazole derivatives bearing urea, thiourea and sulfonamide moieties” (2012).
Values after ≈ are worked out from the molar mass of the structure shown. Active and inactive are the calls of the source. The calls are words filed in the database; no cut-off is given here.

Assays:
Aspergillus niger [1] = assay: Antifungal activity against Aspergillus niger MTCC 281 after 2 to 3 days by agar well diffusion method; type: functional
Candida albicans [2] = assay: Antifungal activity against Candida albicans MTCC 227 after 2 to 3 days by agar well diffusion method; type: functional
Bacillus subtilis [3] = assay: Antibacterial activity against Bacillus subtilis MTCC 441 after 24 hrs by agar well diffusion method; type: functional; conditions: MTCC 441, 24 h
Salmonella typhimurium [4] = assay: Antibacterial activity against Salmonella typhimurium MTCC 98 after 24 hrs by agar well diffusion method; type: functional, Salmonella enterica subsp. enterica serovar Typhimurium; conditions: Salmonella enterica, MTCC 98, 24 h
THP-1 [5] = assay: Antiinflammatory activity in human THP1 cells assessed as inhibition of LPS-stimulated TNFalpha production at 10 uM incubated for 30 mins prior to LPS-challenge measured 24 hrs post LPS challenge by ELISA; type: functional
Escherichia coli = assay: Antibacterial activity against Escherichia coli MTCC 443 after 24 hrs by agar well diffusion method; type: functional; conditions: MTCC 443, 24 h
Aspergillus flavus [6] = assay: Antifungal activity against Aspergillus flavus MTCC 277 after 2 to 3 days by agar well diffusion method; type: functional
THP-1 [7] = assay: Antiinflammatory activity in human THP1 cells assessed as inhibition of LPS-stimulated IL-6 production at 10 uM incubated for 30 mins prior to LPS-challenge measured 24 hrs post LPS-challenge by ELISA; type: functional
Fusarium solani [8] = assay: Antifungal activity against Fusarium solani MTCC 350 after 2 to 3 days by agar well diffusion method; type: functional
Staphylococcus aureus [9] = assay: Antibacterial activity against Staphylococcus aureus MTCC 96 after 24 hrs by agar well diffusion method; type: functional; conditions: MTCC 96, 24 h
Fusarium solani [10] = assay: Antifungal activity against Fusarium solani MTCC 350 up to 200 ug/mL after 2 to 3 days by agar well diffusion method; type: functional, organism-based
Aspergillus niger [11] = assay: Antifungal activity against Aspergillus niger MTCC 281 up to 200 ug/mL after 2 to 3 days by agar well diffusion method; type: functional, organism-based
Salmonella typhimurium [12] = assay: Antibacterial activity against Salmonella typhimurium MTCC 98 up to 200 ug/mL after 24 hrs by agar well diffusion method; type: functional, organism-based; conditions: Salmonella enterica subsp. enterica serovar Typhimurium
Staphylococcus aureus [13] = assay: Antibacterial activity against Staphylococcus aureus MTCC 96 up to 200 ug/mL after 24 hrs by agar well diffusion method; type: functional, organism-based
Aspergillus flavus [14] = assay: Antifungal activity against Aspergillus flavus MTCC 277 up to 200 ug/mL after 2 to 3 days by agar well diffusion method; type: functional, organism-based
Bacillus subtilis [15] = assay: Antibacterial activity against Bacillus subtilis MTCC 441 up to 200 ug/mL after 24 hrs by agar well diffusion method; type: functional, organism-based
Candida albicans [16] = assay: Antifungal activity against Candida albicans MTCC 227 up to 200 ug/mL after 2 to 3 days by agar well diffusion method; type: functional, organism-based

Row | SMILES | MIC (Aspergillus niger [1]) [µg/mL] | MIC (Candida albicans [2]) [µg/mL] | MIC (Bacillus subtilis [3]) [µg/mL] | MIC (Salmonella typhimurium [4]) [µg/mL] | MIC (Escherichia coli) [µg/mL] | MIC (Aspergillus flavus [6]) [µg/mL] | MIC (Fusarium solani [8]) [µg/mL] | MIC (Staphylococcus aureus [9]) [µg/mL] | inhibition at 10 µM (THP-1 [5]) [%] | inhibition at 10 µM (THP-1 [7]) [%] | Activity (Fusarium solani [10]) | Activity (Aspergillus niger [11]) | Activity (Salmonella typhimurium [12]) | Activity (Staphylococcus aureus [13]) | Activity (Aspergillus flavus [14]) | Activity (Bacillus subtilis [15]) | Activity (Candida albicans [16])
1 | COc1ccc(C2=NN(C(C)=O)C(c3ccc(NS(=O)(=O)c4ccc(C)cc4)cc3)C2)cc1OC (centres undefined) | 90 (≈ 182 µM) | 70 (≈ 142 µM) | 90 (≈ 182 µM) | 90 (≈ 182 µM) | 75 (≈ 152 µM) | 90 (≈ 182 µM) | 65 (≈ 132 µM) | 90 (≈ 182 µM) | 0 | 0 |  |  |  |  |  |  | 
2 | COc1ccc(C2=NN(C(C)=O)C(c3ccc([N+](=O)[O-])cc3)C2)cc1OC (centres undefined) | 90 (≈ 244 µM) | 90 (≈ 244 µM) | 50 (≈ 135 µM) | 90 (≈ 244 µM) | 65 (≈ 176 µM) | 90 (≈ 244 µM) |  | 90 (≈ 244 µM) | 0 | 0 | inactive |  |  |  |  |  | 
3 | COc1ccc(C2=NN(C(C)=O)C(c3ccc(NC(=O)Nc4ccccc4F)cc3)C2)cc1OC (centres undefined) | 80 (≈ 168 µM) | 80 (≈ 168 µM) | 80 (≈ 168 µM) | 80 (≈ 168 µM) | 45 (≈ 94.4 µM) | 80 (≈ 168 µM) | 90 (≈ 189 µM) | 60 (≈ 126 µM) | 85 | 93 |  |  |  |  |  |  | 
4 | COc1ccc(C2=NN(C(C)=O)C(c3ccc(NC(=S)Nc4ccccc4F)cc3)C2)cc1OC (centres undefined) |  | 80 (≈ 162 µM) | 80 (≈ 162 µM) | 90 (≈ 183 µM) | 55 (≈ 112 µM) | 90 (≈ 183 µM) | 90 (≈ 183 µM) | 80 (≈ 162 µM) | 78 | 84 |  | inactive |  |  |  |  | 
5 | COc1cccc(NC(=S)Nc2ccc(C3CC(c4ccc(OC)c(OC)c4)=NN3C(C)=O)cc2)c1 (centres undefined) | 95 (≈ 188 µM) | 80 (≈ 159 µM) | 90 (≈ 178 µM) | 90 (≈ 178 µM) | 70 (≈ 139 µM) | 95 (≈ 188 µM) |  | 55 (≈ 109 µM) | 11 | 26 |  |  |  |  |  |  | 
6 | COc1ccc(C2=NN(C(C)=O)C(c3ccc(NC(=O)Nc4ccc(C(F)(F)F)cc4Cl)cc3)C2)cc1OC (centres undefined) | 35 (≈ 62.4 µM) | 55 (≈ 98 µM) | 60 (≈ 107 µM) | 80 (≈ 143 µM) | 45 (≈ 80.2 µM) | 20 (≈ 35.7 µM) | 20 (≈ 35.7 µM) | 35 (≈ 62.4 µM) | 3 | 8 |  |  |  |  |  |  | 
7 | COc1ccc(C2=NN(C(C)=O)C(c3ccc(NC(=S)Nc4ccc(F)cc4)cc3)C2)cc1OC (centres undefined) |  |  |  |  | 80 (≈ 162 µM) |  | 90 (≈ 183 µM) | 80 (≈ 162 µM) | 3 | 10 |  | inactive | inactive |  | inactive | inactive | inactive

The remaining molecules from weak to strong by MIC (Escherichia coli), led by results:

Row | MIC (Aspergillus niger [1]) [µg/mL] | MIC (Candida albicans [2]) [µg/mL] | MIC (Bacillus subtilis [3]) [µg/mL] | MIC (Salmonella typhimurium [4]) [µg/mL] | MIC (Escherichia coli) [µg/mL] | MIC (Aspergillus flavus [6]) [µg/mL] | MIC (Fusarium solani [8]) [µg/mL] | MIC (Staphylococcus aureus [9]) [µg/mL] | SMILES | inhibition at 10 µM (THP-1 [5]) [%] | inhibition at 10 µM (THP-1 [7]) [%] | Activity (Fusarium solani [10]) | Activity (Aspergillus niger [11]) | Activity (Salmonella typhimurium [12]) | Activity (Staphylococcus aureus [13]) | Activity (Aspergillus flavus [14]) | Activity (Bacillus subtilis [15]) | Activity (Candida albicans [16])
8 | 40 (≈ 79.3 µM) | 65 (≈ 129 µM) | 65 (≈ 129 µM) | 90 (≈ 178 µM) | 90 (≈ 178 µM) | 70 (≈ 139 µM) | 80 (≈ 159 µM) | 80 (≈ 159 µM) | COc1ccc(C2=NN(C(C)=O)C(c3ccc(NS(=O)(=O)c4ccccc4C#N)cc3)C2)cc1OC (centres undefined) | 10 | 31 |  |  |  |  |  |  | 
9 |  | 90 (≈ 178 µM) |  |  | 90 (≈ 178 µM) |  | 75 (≈ 149 µM) |  | COc1ccccc1NC(=S)Nc1ccc(C2CC(c3ccc(OC)c(OC)c3)=NN2C(C)=O)cc1 (centres undefined) | 0 | 0 |  | inactive | inactive | inactive | inactive | inactive | 
10 | 40 (≈ 79.9 µM) | 20 (≈ 40 µM) | 40 (≈ 79.9 µM) | 55 (≈ 110 µM) | 30 (≈ 59.9 µM) | 20 (≈ 40 µM) | 20 (≈ 40 µM) | 30 (≈ 59.9 µM) | COc1ccc(C2=NN(C(C)=O)C(c3ccc(NC(=O)Nc4ccc(C(C)C)cc4)cc3)C2)cc1OC (centres undefined) | 11 | 16 |  |  |  |  |  |  | 
11 | 35 (≈ 64.5 µM) | 25 (≈ 46.1 µM) | 20 (≈ 36.9 µM) | 45 (≈ 82.9 µM) | 25 (≈ 46.1 µM) | 20 (≈ 36.9 µM) | 20 (≈ 36.9 µM) | 30 (≈ 55.3 µM) | COc1ccc(C2=NN(C(C)=O)C(c3ccc(NC(=O)Nc4ccc(OC(F)(F)F)cc4)cc3)C2)cc1OC (centres undefined) | 8 | 11 |  |  |  |  |  |  | 
12 | 25 (≈ 44.4 µM) | 45 (≈ 79.9 µM) | 45 (≈ 79.9 µM) | 65 (≈ 115 µM) | 15 (≈ 26.6 µM) | 20 (≈ 35.5 µM) | 35 (≈ 62.1 µM) | 20 (≈ 35.5 µM) | COc1ccc(C2=NN(C(C)=O)C(c3ccc(NS(=O)(=O)c4ccc(OC(F)(F)F)cc4)cc3)C2)cc1OC (centres undefined) | 8 | 30 |  |  |  |  |  |  | 
